Data on one compound can be found in publication PMC6290777, “Inhalation of the prodrug PI3K inhibitor CL27c improves lung function in asthma and fibrosis” (Nature Communications, 2018).

The test system of test [1] is fMLP-activated LPS-primed neutrophils. Put plainly: ROS production by fMLP-activated LPS-primed neutrophils. Conditions: fMLP 2.5 μM; CL27c 1 and 10 µM. Format: cell-based, mouse. How it is done: Production of ROS was determined by primary isolated neutrophils (5 × 10^6/mL) (as described above) with lipopolysaccharide (1 μg/mL) for 1 h and then preincubating them with luminol (20 μg/mL) and horseradish peroxidase (35 μg/mL) in RPMI medium plus 10% FCS. The cells were subsequently stimulated with 2.5 μM formyl-methionyl-leucyl-phenylalanine (fMLP, Sigma-Aldrich), and light emission was recorded every 5 sec for a period of 300 sec in a Berthold MicroLumat Plus luminometer (Berthold Technologies).

Test [2] relates to human lung fibroblasts (HLF). Put plainly: Cell survival of human lung fibroblasts (CellTiter-Glo). Format: cell-based. Conditions: TGF-β 10 ng/ml, 48 hours; CL27c 1 and 10 µM. How it is done:
Human lung fibroblast cell culture
Two separate human lung fibroblast cell lines isolated from IPF patients were used: LL97a derived from a person (ATCC, Manassas, USA) and DHLF-IPF (#CC-7231, Lonza, Switzerland). Control cell lines were CCD-16Lu, obtained from a person that died of astrocytoma –a disease unrelated to IPF - (ATCC) and NHLF (#CC-2512; Lonza). LL97a and CCD-16Lu cells were cultured in Dulbecco's modified Eagles medium (DMEM, Sigma Aldrich, Dorset, UK). Media was supplemented with penicillin/streptomycin (100 U/ml, Thermo-Fischer, Germany) and 10% fetal bovine serum (FBS, Thermo-Fischer, Germany). Cells from Lonza were cultured in the FGMTM (#CC-3132, Lonza). […]
Caliper based assay, the reaction was terminated by addition of EDTA buffer. Substrate and product were separated and quantified electrophoretically using the microfluidic-based and the assay plate was read on Caliper LabChip 3000 Drug Discovery System from Caliper Life Sciences (Walthan, MA, USA). ADP Glo was another method of detection used for some kinase assays where data was obtained by quantifying the intensity of luminescence. For ADP Glo based assay, the reaction was terminated by applying the Promega ADP Glo Kinase Assay kit and the assay plate was read on a LJL Biosystems Analyst HT. […]

Each structure is given as a SMILES string.

In the case of `COC(=O)c1cccc(Cn2cc(-c3cccc4c(=O)cc(N5CCOCC5)[nH]c34)nn2)c1` [CL27c], the “reactive oxygen species production (respiratory burst)” value in test [1] was “efficiently and dose-dependently inhibited reactive oxygen species production”. In test [2], the “survival of HLF lines” value was “reduced survival at 1 and 10 µM”.
